Measured values: US20160108049A1 (TAKEDA Gmbh, priority 2011, published 2016)

Key:
PDE4B1 = molecular target: T1, PDE4B1 (Homo sapiens, UniProt Q07343); assay: Inhibition of PDE4 activity (PDE4B1, SPA assay); assay type: biochemical; conditions: recombinant PDE4B1, 0.5 μM cAMP; read-out: PDE4B1 Inhibitory values measured as -logIC50 (converted)
T1 construct: made in house; host or cells: SF21 insect cells (baculovirus; virus made in SF9 cells, pCR-Bac vector)
Outline: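 Read-out is SPA yttrium silicate bead scintillation after IBMX-containing beads stop the reaction. Insect-cell (SF21) lysate enzyme hydrolysed 0.5 μM [3H]cAMP at pH 7.4 with 5 mM Mg2+ for 15 min after a 5 min 37 °C preincubation; IC50 fitted by non-linear regression.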

human PDE5 = molecular target: T2, human PDE5 (Homo sapiens, UniProt O76074); assay: Inhibition of PDE5 activity (platelet lysate, SPA assay); assay type: biochemical; conditions: 0.5 μM cGMP, read-out: PDE5 Inhibitory values measured as -logIC50 (converted)
T2 construct: from tissue; host or cells: human platelets from fresh donor blood (platelet lysate)
Outline: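 SPA readout of [3H]cGMP hydrolysis (0.5 μM, 15 min, 37 °C after 5 min preincubation), stopped with yttrium silicate beads containing IBMX. Enzyme was lysate from human platelets, used at 10–20% substrate turnover, with PDE3 (motapizone 1 μM) and PDE2 (10 nM) blockers present. IC50 values fitted non-linearly from concentration-effect curves.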

T1 sequence (Q07343 whole entry): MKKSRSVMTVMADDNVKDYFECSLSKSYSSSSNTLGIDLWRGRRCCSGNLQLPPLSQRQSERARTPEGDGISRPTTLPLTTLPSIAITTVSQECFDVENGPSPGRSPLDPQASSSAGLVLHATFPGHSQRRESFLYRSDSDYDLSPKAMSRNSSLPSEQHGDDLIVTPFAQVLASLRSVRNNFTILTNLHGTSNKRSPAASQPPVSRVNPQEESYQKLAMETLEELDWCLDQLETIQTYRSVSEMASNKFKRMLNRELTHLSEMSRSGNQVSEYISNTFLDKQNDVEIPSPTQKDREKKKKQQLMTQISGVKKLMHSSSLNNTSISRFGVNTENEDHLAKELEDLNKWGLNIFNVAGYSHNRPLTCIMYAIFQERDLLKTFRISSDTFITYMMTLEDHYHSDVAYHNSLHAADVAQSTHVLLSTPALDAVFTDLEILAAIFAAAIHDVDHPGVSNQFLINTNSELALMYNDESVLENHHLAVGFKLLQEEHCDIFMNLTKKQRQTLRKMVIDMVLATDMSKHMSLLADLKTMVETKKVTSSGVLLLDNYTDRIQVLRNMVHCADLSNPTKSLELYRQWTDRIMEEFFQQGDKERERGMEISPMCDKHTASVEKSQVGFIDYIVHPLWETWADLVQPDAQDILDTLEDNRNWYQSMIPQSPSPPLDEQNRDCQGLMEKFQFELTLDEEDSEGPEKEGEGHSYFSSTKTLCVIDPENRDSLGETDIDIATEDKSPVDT

| IC50 (PDE4B1) [nM] | IC50 (human PDE5) [nM] | SMILES |
| --- | --- | --- |
| 1 to 10 | 1 to 10 | COc1ccc(C2=NN(C3CCN(C(=O)CCNC(=O)c4c[nH]c5c(-c6c(OCC7CC7)ccc7c6OCO7)ncnc45)CC3)C(=O)[C@@H]3CCCC[C@H]23)cc1OC [Example 76, 4-[5-(cyclopropylmethoxy)-1,3-benzodioxol-4-yl]-N-(3-{4-[(4aS,8aR)-4-(3,4-dimethoxyphenyl)-1-oxo-4a,5,6,7,8,8a-hexahydrophthalazin-2(1H)-yl]piperidin-1-yl}-3-oxopropyl)-5H-pyrrolo[3,2-d]pyrimidine-7-carboxamide] |
| 1 to 10 | 1 to 10 | COc1ccc(C2=NN(C3CCN(C(=O)C[C@@H](Cc4ccccc4)NC(=O)c4c[nH]c5c(-c6c(OCC7CC7)ccc7c6OCO7)ncnc45)CC3)C(=O)[C@@H]3CCCC[C@H]23)cc1OC [Example 77, 4-[5-(cyclopropylmethoxy)-1,3-benzodioxol-4-yl]-N-[(2R)-4-{4-[(4aS,8aR)-4-(3,4-dimethoxyphenyl)-1-oxo-4a,5,6,7,8,8a-hexahydrophthalazin-2(1H)-yl]piperidin-1-yl}-4-oxo-1-phenylbutan-2-yl]-5H-pyrrolo[3,2-d]pyrimidine-7-carboxamide] |
| 1 to 10 | 1 to 10 | COc1ccc(C2=NN(C3CCN(C(=O)C[C@@H](Cc4ccccc4)NC(=O)c4c[nH]c5c(-c6c(OCC7CC7)ccc7c6OCO7)ncnc45)CC3)C(=O)C(C)(C)C2)cc1OC [Example 78, 4-[5-(cyclopropylmethoxy)-1,3-benzodioxol-4-yl]-N-[(2R)-4-{4-[3-(3,4-dimethoxyphenyl)-5,5-dimethyl-6-oxo-5,6-dihydropyridazin-1(4H)-yl]piperidin-1-yl}-4-oxo-1-phenylbutan-2-yl]-5H-pyrrolo[3,2-d]pyrimidine-7-carboxamide] |
| 1 to 10 | 1 to 10 | COc1ccc(C2=NN(C3CCN(C(=O)[C@H](CCC(=O)N4CCCCC4)NC(=O)c4c[nH]c5c(-c6c(OCC7CC7)ccc7c6OCO7)ncnc45)CC3)C(=O)[C@@H]3CCCC[C@H]23)cc1OC [Example 79, 4-[5-(cyclopropylmethoxy)-1,3-benzodioxol-4-yl]-N-[(2S)-1-{4-[(4aS,8aR)-4-(3,4-dimethoxyphenyl)-1-oxo-4a,5,6,7,8,8a-hexahydrophthalazin-2(1H)-yl]piperidin-1-yl}-1,5-dioxo-5-(piperidin-1-yl)pentan-2-yl]-5H-pyrrolo[3,2-d]pyrimidine-7-carboxamide] |
| 1 to 10 | < 1 | COc1ccc(C2=NN(C3CCN(C(=O)[C@H](CCC(=O)N4CCCCC4)NC(=O)c4c(C)[nH]c5c(-c6c(OCC7CC7)ccc7c6OCO7)ncnc45)CC3)C(=O)[C@@H]3CCCC[C@H]23)cc1OC [Example 83, 4-[5-(cyclopropylmethoxy)-1,3-benzodioxol-4-yl]-N-[(2S)-1-{4-[(4aS,8aR)-4-(3,4-dimethoxyphenyl)-1-oxo-4a,5,6,7,8,8a-hexahydrophthalazin-2(1H)-yl]piperidin-1-yl}-1,5-dioxo-5-(piperidin-1-yl)pentan-2-yl]-6-methyl-5H-pyrrolo[3,2-d]pyrimidine-7-carboxamide] |
| 1 to 10 | < 1 | COc1cc(OCC2CC2)c(-c2ncnc3c(C(=O)N[C@@H](CCC(=O)N4CCCCC4)C(=O)N4CCC(N5N=C(c6ccc(OC)c(OC)c6)[C@H]6CCCC[C@H]6C5=O)CC4)c(C)[nH]c23)cc1F [Example 84, 4-[2-(cyclopropylmethoxy)-5-fluoro-4-methoxyphenyl]-N-[(2S)-1-{4-[(4aS,8aR)-4-(3,4-dimethoxyphenyl)-1-oxo-4a,5,6,7,8,8a-hexahydrophthalazin-2(1H)-yl]piperidin-1-yl}-1,5-dioxo-5-(piperidin-1-yl)pentan-2-yl]-6-methyl-5H-pyrrolo[3,2-d]pyrimidine-7-carboxamide] |
| < 1 | < 1 | COc1ccc(C2=NN(C3CCN(C(=O)[C@@H](Cc4cscn4)NC(=O)c4c[nH]c5c(-c6c(OCC7CC7)ccc7c6OCO7)ncnc45)CC3)C(=O)[C@@H]3CCCC[C@H]23)cc1OC [Example 85, 4-[5-(cyclopropylmethoxy)-1,3-benzodioxol-4-yl]-N-[(2R)-1-{4-[(4aS,8aR)-4-(3,4-dimethoxyphenyl)-1-oxo-4a,5,6,7,8,8a-hexahydrophthalazin-2(1H)-yl]piperidin-1-yl}-1-oxo-3-(1,3-thiazol-4-yl)propan-2-yl]-5H-pyrrolo[3,2-d]pyrimidine-7-carboxamide] |
| 1 to 10 | 1 to 10 | COc1ccc(C2=NN(C3CCN(C(=O)[C@H](Cn4cccn4)NC(=O)c4c[nH]c5c(-c6c(OCC7CC7)ccc7c6OCO7)ncnc45)CC3)C(=O)[C@@H]3CCCC[C@H]23)cc1OC [Example 88, 4-[5-(cyclopropylmethoxy)-1,3-benzodioxol-4-yl]-N-[(2S)-1-{4-[(4aS,8aR)-4-(3,4-dimethoxyphenyl)-1-oxo-4a,5,6,7,8,8a-hexahydrophthalazin-2(1H)-yl]piperidin-1-yl}-1-oxo-3-(1H-pyrazol-1-yl)propan-2-yl]-5H-pyrrolo[3,2-d]pyrimidine-7-carboxamide] |
| < 1 | < 1 | COc1ccc(C2=NN(C3CCN(C(=O)[C@@H](Cc4c[nH]cn4)NC(=O)c4c[nH]c5c(-c6c(OCC7CC7)ccc7c6OCO7)ncnc45)CC3)C(=O)[C@@H]3CCCC[C@H]23)cc1OC [Example 89, 4-[5-(cyclopropylmethoxy)-1,3-benzodioxol-4-yl]-N-[(2R)-1-{4-[(4aS,8aR)-4-(3,4-dimethoxyphenyl)-1-oxo-4a,5,6,7,8,8a-hexahydrophthalazin-2(1H)-yl]piperidin-1-yl}-3-(1H-imidazol-4-yl)-1-oxopropan-2-yl]-5H-pyrrolo[3,2-d]pyrimidine-7-carboxamide] |
| < 1 | < 1 | COc1ccc(C2=NN(C3CCN(C(=O)[C@H](Cc4c[nH]cn4)NC(=O)c4c[nH]c5c(-c6c(OCC7CC7)ccc7c6OCO7)ncnc45)CC3)C(=O)[C@@H]3CCCC[C@H]23)cc1OC [Example 90, 4-[5-(cyclopropylmethoxy)-1,3-benzodioxol-4-yl]-N-[(2S)-1-{4-[(4aS,8aR)-4-(3,4-dimethoxyphenyl)-1-oxo-4a,5,6,7,8,8a-hexahydrophthalazin-2(1H)-yl]piperidin-1-yl}-3-(1H-imidazol-4-yl)-1-oxopropan-2-yl]-5H-pyrrolo[3,2-d]pyrimidine-7-carboxamide] |
| < 1 | < 1 | COc1ccc(C2=NN(C3CCN(C(=O)[C@@H](Cc4c[nH]c5ccccc45)NC(=O)c4c[nH]c5c(-c6c(OCC7CC7)ccc7c6OCO7)ncnc45)CC3)C(=O)[C@@H]3CCCC[C@H]23)cc1OC [Example 91, 4-[5-(cyclopropylmethoxy)-1,3-benzodioxol-4-yl]-N-[(2R)-1-{4-[(4aS,8aR)-4-(3,4-dimethoxyphenyl)-1-oxo-4a,5,6,7,8,8a-hexahydrophthalazin-2(1H)-yl]piperidin-1-yl}-3-(1H-indol-3-yl)-1-oxopropan-2-yl]-5H-pyrrolo[3,2-d]pyrimidine-7-carboxamide] |
| < 1 | < 1 | COc1ccc(C2=NN(C3CCN(C(=O)C(Cc4c[nH]c5ccccc45)NC(=O)c4c[nH]c5c(-c6c(OCC7CC7)ccc7c6OCO7)ncnc45)CC3)C(=O)C3CCCCC23)cc1OC [Example 92, 4-[5-(cyclopropylmethoxy)-1,3-benzodioxol-4-yl]-N-[(2S)-1-{4-[(4aS,8aR)-4-(3,4-dimethoxyphenyl)-1-oxo-4^a,5,6,7,8,8^a-hexahydrophthalazin-2(1H)-yl]piperidin-1-yl}-3-(1H-indol-3-yl)-1-oxopropan-2-yl]-5H-pyrrolo[3,2-d]pyrimidine-7-carboxamide] |
| < 1 | 1 to 10 | COc1ccc(C2=NN(C3CCN(C(=O)[C@@H](Cc4cn(C)c5ccccc45)NC(=O)c4c[nH]c5c(-c6c(OCC7CC7)ccc7c6OCO7)ncnc45)CC3)C(=O)[C@@H]3CCCC[C@H]23)cc1OC [Example 93, 4-[5-(cyclopropylmethoxy)-1,3-benzodioxol-4-yl]-N-[(2R)-1-{4-[(4aS,8aR)-4-(3,4-dimethoxyphenyl)-1-oxo-4a,5,6,7,8,8a-hexahydrophthalazin-2(1H)-yl]piperidin-1-yl}-3-(1-methyl-1H-indol-3-yl)-1-oxopropan-2-yl]-5H-pyrrolo[3,2-d]pyrimidine-7-carboxamide] |
| 1 to 10 | < 1 | COc1ccc(C2=NN(C3CCN(C(=O)[C@H](CC4CCCCC4)NC(=O)c4c[nH]c5c(-c6c(OCC7CC7)ccc7c6OCO7)ncnc45)CC3)C(=O)C(C)(C)C2)cc1OC [Example 94, N-[(2S)-3-cyclohexyl-1-{4-[3-(3,4-dimethoxyphenyl)-5,5-dimethyl-6-oxo-5,6-dihydropyridazin-1(4H)-yl]piperidin-1-yl}-1-oxopropan-2-yl]-4-[5-(cyclopropylmethoxy)-1,3-benzodioxol-4-yl]-5H-pyrrolo[3,2-d]pyrimidine-7-carboxamide] |
| < 1 | < 1 | COc1ccc(C2=NN(C3CCN(C(=O)[C@@H](CC(C)C)NC(=O)c4c[nH]c5c(-c6c(OCC7CC7)ccc7c6OCO7)ncnc45)CC3)C(=O)[C@@H]3CCCC[C@H]23)cc1OC [Example 95, 4-[5-(cyclopropylmethoxy)-1,3-benzodioxol-4-yl]-N-[(2R)-1-{4-[(4aS,8aR)-4-(3,4-dimethoxyphenyl)-1-oxo-4a,5,6,7,8,8a-hexahydrophthalazin-2(1H)-yl]piperidin-1-yl}-4-methyl-1-oxopentan-2-yl]-5H-pyrrolo[3,2-d]pyrimidine-7-carboxamide] |
